Drawing on ChEMBL document CHEMBL3232804, “Synthesis and evaluation of new diaryl ether and quinoline hybrids as potential antiplasmodial and antimicrobial agents” (Bioorg Med Chem Lett, 2014), this text covers MIC, IC50 and selectivity ratio for 8 compounds.

One data set has as its system Candida albicans. Nature of the data set: Antifungal activity against Candida albicans clinical isolate after 24 to 48 hrs by standard broth microdilution method. In kind it is functional. Background: In broth dilution the organism is exposed to a series of concentrations in liquid medium.
In a further data set the test system is Staphylococcus aureus. Briefly: Antimicrobial activity against Staphylococcus aureus ATCC 25923 after 24 hrs by standard broth microdilution method. It is filed as functional. The note with it: ATCC 25923, 24 h.
In the next data set the test system is Escherichia coli. Briefly: Antimicrobial activity against Escherichia coli ATCC 9637 after 24 hrs by standard broth microdilution method. In kind it is functional. The note with it: ATCC 9637, 24 h.
Data set [1] concerns Plasmodium falciparum. Nature of the data set: Antiplasmodial activity against chloroquine-sensitive Plasmodium falciparum 3D7 infected after 72 hrs by Malaria SYBR Green I-staining based fluorescence assay. The following applies: 3D7, 72 h. It is filed as functional, organism-based.
In another data set the test system is Aspergillus fumigatus. Nature of the data set: Antifungal activity against Aspergillus fumigatus clinical isolate after 72 to 96 hrs by standard broth microdilution method. It is filed as functional.
Another data set deals with Cryptococcus neoformans. Briefly: Antifungal activity against Cryptococcus neoformans clinical isolate after 24 to 48 hrs by standard broth microdilution method. It is filed as functional.
For data set [2], the system named is Trichophyton mentagrophytes. Briefly: Antifungal activity against Trichophyton mentagrophytes clinical isolate after 72 to 96 hrs by standard broth microdilution method. It is filed as functional.
Data set [3] has as its system Plasmodium falciparum. Nature of the data set: Antiplasmodial activity against chloroquine-resistant Plasmodium falciparum K1 infected after 72 hrs by Malaria SYBR Green I-staining based fluorescence assay. In kind it is functional, organism-based. The following applies: K1, 72 h.
In the next data set the test system is Klebsiella pneumoniae. Nature of the data set: Antimicrobial activity against Klebsiella pneumoniae ATCC 27736 after 24 hrs by standard broth microdilution method. It is filed as functional. The following applies: ATCC 27736, 24 h.
The test system of a further data set is Sporothrix schenckii. Nature of the data set: Antifungal activity against Sporothrix schenckii clinical isolate after 72 to 96 hrs by standard broth microdilution method. It is filed as functional.
The test system of another data set is Pseudomonas aeruginosa. Briefly: Antimicrobial activity against Pseudomonas aeruginosa ATCC BAA-427 after 24 hrs by standard broth microdilution method. In kind it is functional. The following applies: ATCC BAA-427, 24 h.
The subject of another data set is Candida parapsilosis. Briefly: Antifungal activity against Candida parapsilosis ATCC […] after 72 to 96 hrs by standard broth microdilution method. It is filed as functional. The note with it: Lodderomyces parapsilosis.
Data set [4] is described as follows: Selectivity index, ratio of IC50 for african green monkey Vero cells to IC50 for chloroquine-sensitive Plasmodium falciparum 3D7. It is filed as toxicity, cell-based. The following applies: read-out: Ratio IC50.

≈ marks a conversion by molar mass, not a printed value. Bounds are passed on as bounds.

As a reminder, the MIC is the lowest concentration found to suppress growth. By IC50 is commonly meant the concentration that gives 50% inhibition. As for `Clc1cccc(/N=C(\NCCNc2ccnc3cc(Cl)ccc23)Nc2ccc(Oc3cc(Cl)ccc3Cl)cc2)c1`, the minimal inhibitory concentration (MIC) in the data set on Candida albicans turned out to be 3.12 µg/mL (≈ 5.1 µM); in the data set with Staphylococcus aureus, 12.5 µg/mL (≈ 20.4 µM); with Escherichia coli it was 6.25 µg/mL (≈ 10.2 µM); with Aspergillus fumigatus, 50 µg/mL (≈ 81.8 µM); in the data set on Cryptococcus neoformans, 12.5 µg/mL (≈ 20.4 µM); in data set [2] it was 6.25 µg/mL (≈ 10.2 µM). Also, the minimum inhibitory concentration (MIC) is greater than 50 µg/mL with Klebsiella pneumoniae, 3.12 µg/mL (≈ 5.1 µM) against Sporothrix schenckii, greater than 50 µg/mL against Pseudomonas aeruginosa and 25 µg/mL (≈ 40.9 µM) against Candida parapsilosis. The concentration for half-maximal inhibition (IC50) is 62.8 nM in the data set on Plasmodium falciparum [1] and greater than 817 nM in the data set on Plasmodium falciparum [3]. For the same compound, the selectivity ratio in data set [4] was determined as 53.2.

For `COc1ccc(Oc2ccc(N/C(=N/c3ccc(Cl)cc3)NCCCNc3ccnc4cc(Cl)ccc34)cc2)cc1`, the MIC is 50 µg/mL (≈ 85.2 µM) in the data set on Candida albicans; 12.5 µg/mL (≈ 21.3 µM) against Staphylococcus aureus; 12.5 µg/mL (≈ 21.3 µM) in the data set with Escherichia coli; 50 µg/mL (≈ 85.2 µM) against Aspergillus fumigatus; 50 µg/mL (≈ 85.2 µM) in the data set on Cryptococcus neoformans; 25 µg/mL (≈ 42.6 µM) in data set [2]. For the same compound, the MIC is 50 µg/mL (≈ 85.2 µM) in the data set on Klebsiella pneumoniae, 25 µg/mL (≈ 42.6 µM) against Sporothrix schenckii, greater than 50 µg/mL in the data set on Pseudomonas aeruginosa and 25 µg/mL (≈ 42.6 µM) with Candida parapsilosis. The figures for the 50% inhibitory concentration (IC50) with Plasmodium falciparum [1] and in the data set with Plasmodium falciparum [3] were 204 nM and greater than 800 nM, respectively. Also, the selectivity ratio in [4] turned out to be 82.1.

With `COc1ccc(Oc2ccccc2N/C(=N/c2ccc(Cl)cc2)NCCCCNc2ccnc3cc(Cl)ccc23)cc1`, the MIC against Candida albicans is 50 µg/mL (≈ 83.3 µM); in the data set on Staphylococcus aureus, 50 µg/mL (≈ 83.3 µM); against Escherichia coli, greater than 50 µg/mL; in the data set on Cryptococcus neoformans it was 50 µg/mL (≈ 83.3 µM); against Klebsiella pneumoniae it was greater than 50 µg/mL; in the data set with Sporothrix schenckii, 25 µg/mL (≈ 41.6 µM). In the data set on Pseudomonas aeruginosa, this compound had an MIC greater than 50 µg/mL. Moreover, the concentration for half-maximal inhibition (IC50) with Plasmodium falciparum [1] was 124 nM; in the data set with Plasmodium falciparum [3], greater than 800 nM. For the same compound, in data set [4], the selectivity ratio stood at 62.8.

For `COC(=O)/C(C)=C/c1ccc(Oc2ccccc2N/C(=N/c2ccc(Cl)cc2)NCCNc2ccnc3cc(Cl)ccc23)cc1`, the minimum inhibitory concentration (MIC) in the data set with Candida albicans is 50 µg/mL (≈ 78.1 µM); against Staphylococcus aureus, 1.56 µg/mL (≈ 2.44 µM); with Escherichia coli, 50 µg/mL (≈ 78.1 µM); in the data set on Aspergillus fumigatus, greater than 50 µg/mL; in the data set with Cryptococcus neoformans, 50 µg/mL (≈ 78.1 µM); in data set [2] it was 50 µg/mL (≈ 78.1 µM). In addition, the minimal inhibitory concentration (MIC) against Klebsiella pneumoniae is greater than 50 µg/mL; in the data set on Sporothrix schenckii, 50 µg/mL (≈ 78.1 µM); with Pseudomonas aeruginosa, greater than 50 µg/mL; with Candida parapsilosis it was greater than 50 µg/mL. Also, the IC50 in the data set with Plasmodium falciparum [1] was 51.5 nM; in the data set with Plasmodium falciparum [3] it was 419 nM. For the same compound, the selectivity ratio in data set [4] was found to be 46.2.

Regarding `Clc1ccc(Cl)c(Oc2ccccc2N/C(=N/c2ccccc2)NCCCNc2ccnc3cc(Cl)ccc23)c1`, the MIC against Candida albicans is 12.5 µg/mL (≈ 21.2 µM); against Staphylococcus aureus, 3.12 µg/mL (≈ 5.28 µM); in the data set on Escherichia coli it was 12.5 µg/mL (≈ 21.2 µM); in the data set with Aspergillus fumigatus, greater than 50 µg/mL; in the data set on Cryptococcus neoformans, 25 µg/mL (≈ 42.3 µM); in data set [2], 12.5 µg/mL (≈ 21.2 µM). The minimal inhibitory concentration (MIC) was 12.5 µg/mL (≈ 21.2 µM) in the data set on Klebsiella pneumoniae, 12.5 µg/mL (≈ 21.2 µM) against Sporothrix schenckii, greater than 50 µg/mL in the data set on Pseudomonas aeruginosa and 50 µg/mL (≈ 84.6 µM) against Candida parapsilosis. The IC50 in the data set on Plasmodium falciparum [1] came out at 74.7 nM; in the data set on Plasmodium falciparum [3], 176 nM. The selectivity ratio in data set [4] was determined as 116.

For the compound `Clc1ccc(Cl)c(Oc2ccc(N/C(=N/c3ccccc3)NCCCNc3ccnc4cc(Cl)ccc34)cc2)c1`, the minimal inhibitory concentration (MIC) in the data set with Candida albicans was 12.5 µg/mL (≈ 21.2 µM); in the data set with Staphylococcus aureus, 12.5 µg/mL (≈ 21.2 µM); with Escherichia coli, 3.12 µg/mL (≈ 5.28 µM); against Aspergillus fumigatus, 6.25 µg/mL (≈ 10.6 µM); with Cryptococcus neoformans, 6.25 µg/mL (≈ 10.6 µM); in data set [2], 6.25 µg/mL (≈ 10.6 µM). Further, the MIC in the data set with Klebsiella pneumoniae is 25 µg/mL (≈ 42.3 µM); in the data set with Sporothrix schenckii, 3.12 µg/mL (≈ 5.28 µM); with Pseudomonas aeruginosa it was greater than 50 µg/mL; against Candida parapsilosis it was 6.25 µg/mL (≈ 10.6 µM). The IC50 with Plasmodium falciparum [1] was 23.1 nM; in the data set with Plasmodium falciparum [3], greater than 846 nM. Moreover, the selectivity ratio in data set [4] amounted to 164.

For `COc1ccc(Oc2ccc(N/C(=N/c3cccc(Cl)c3)NCCCNc3ccnc4cc(Cl)ccc34)cc2)cc1`, the minimal inhibitory concentration (MIC) with Candida albicans stood at 6.25 µg/mL (≈ 10.7 µM); against Staphylococcus aureus, 6.25 µg/mL (≈ 10.7 µM); with Escherichia coli, 6.25 µg/mL (≈ 10.7 µM); in the data set on Aspergillus fumigatus it was 25 µg/mL (≈ 42.6 µM); with Cryptococcus neoformans, 25 µg/mL (≈ 42.6 µM); in data set [2] it was 6.25 µg/mL (≈ 10.7 µM). Moreover, the minimum inhibitory concentration (MIC) is 12.5 µg/mL (≈ 21.3 µM) in the data set with Klebsiella pneumoniae, 6.25 µg/mL (≈ 10.7 µM) in the data set on Sporothrix schenckii, greater than 50 µg/mL with Pseudomonas aeruginosa and 12.5 µg/mL (≈ 21.3 µM) in the data set with Candida parapsilosis. Also, the IC50 in the data set with Plasmodium falciparum [1] was determined as 49.6 nM; in the data set on Plasmodium falciparum [3], 236 nM. The selectivity ratio in data set [4] was 158.

As for `COc1ccc(Oc2ccc(N/C(=N/c3ccc(Cl)cc3)NCCCCNc3ccnc4cc(Cl)ccc34)cc2)cc1`, the minimum inhibitory concentration (MIC) against Candida albicans came out at 25 µg/mL (≈ 41.6 µM); against Staphylococcus aureus, 6.25 µg/mL (≈ 10.4 µM); in the data set with Escherichia coli, 6.25 µg/mL (≈ 10.4 µM); against Aspergillus fumigatus it was 25 µg/mL (≈ 41.6 µM); against Cryptococcus neoformans it was 25 µg/mL (≈ 41.6 µM); in [2] it was 12.5 µg/mL (≈ 20.8 µM). Moreover, the minimum inhibitory concentration (MIC) against Klebsiella pneumoniae is 25 µg/mL (≈ 41.6 µM); against Sporothrix schenckii, 12.5 µg/mL (≈ 20.8 µM); with Pseudomonas aeruginosa it was greater than 50 µg/mL; in the data set on Candida parapsilosis, 6.25 µg/mL (≈ 10.4 µM). In addition, the concentration for half-maximal inhibition (IC50) in the data set with Plasmodium falciparum [1] is 33.7 nM; in the data set on Plasmodium falciparum [3], 138 nM. In [4], the selectivity ratio was determined as 88.7.
